From PubChem BioAssay AID504322 (Emory University Molecular Libraries Screening Center, 2011)
The source made the active and inactive calls. How the calls were made is not given here.

System: CHOP reporter cell assay, percent of control
Assay: CHOP reporter inhibitor potency, dose response, cell-based (AID 504322);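 further: CHO cells carrying a CHOP reporter stimulated with tunicamycin to induce ER stress; potency is for inhibition of the stress-induced reporter signal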

Row | Compound | IC50
1 | C=CCSc1n[nH]c(-c2ccc(OCCCC)cc2)n1 | > 10 µM (inactive)
2 | O=C(Nc1ccc(Cl)cc1)Nc1ccc(N2CCCC2)c(S(=O)(=O)Nc2ccccc2Cl)c1 | 5.95 µM (inactive)
3 | CCCN1C=CC(=C2C(=O)c3ccccc3C2=O)C=C1 | 1.78 µM (inactive)
4 | COc1ccc2c3c(cccc13)C(=O)N(O)C2=O | 2.57 µM
5 | CCC(C)c1ccc(O)c(NC(=O)c2cncc(Br)c2)c1 (stereo not drawn) | 6.67 µM (inactive)
6 | Cn1cnc([N+](=O)[O-])c1S(=O)(=O)c1ccc(Cl)cc1 | 7.04 µM (inactive)
7 | O=C(Nc1ccccc1C(F)(F)F)c1cc(-c2ccc(O)cc2)on1 | 9.47 µM (inactive)
8 | O=C(Nc1cc(N2CCOCC2)ncn1)NC1(C(F)(F)F)Oc2ccc(Cl)cc2O1 (stereo not drawn) | > 10 µM (inactive)
9 | O=C(CN1C(=O)c2ccccc2S1(=O)=O)c1ccc2c(c1)OCCCO2 | 0.34 µM (inactive)
10 | Cc1nc(SCC(=O)Nc2ccc(F)cc2)c(C#N)c(C)c1CC(=O)c1ccc(Br)cc1 | > 10 µM (inactive)
11 | CC(C)(C)C(=O)NC(NC(=S)Nc1sc2c(c1C#N)CCCC2)C(Cl)(Cl)Cl (stereo not drawn) | > 10 µM (inactive)
12 | COc1cccc(NC(=O)CSc2nnc(-c3cc(C)n(-c4ccccc4)c3C)o2)c1 | 1.76 µM (inactive)
13 | OC(CNCC1CCCO1)Cn1c2ccc(Br)cc2c2cc(Br)ccc21 (stereo not drawn) | 8.2 µM (inactive)
14 | COc1cc(C(=O)OC(C)C(=O)NCC2CCCCC2)cc(NC(=O)c2ccco2)c1OC (stereo not drawn) | > 10 µM (inactive)
15 | C/C(=N\OCc1cccc(C(=O)O)c1)c1ccc(Cl)cc1 | 6 µM (inactive)
16 | CCc1ccc(NP(=O)(Oc2ccccc2F)Oc2ccccc2F)cc1 | 9.66 µM (inactive)
17 | O=C(O)CSCC(=O)Nc1ccc(C2CCCCC2)cc1 | 0.54 µM
18 | C=C(C)COc1ccc(-c2n[nH]c(C)c2Oc2ccccc2OC)c(O)c1 | 8.82 µM (inactive)
19 | CC(C)(C)C1C/C(=C/c2ccccn2)C(=O)/C(=C/c2ccccn2)C1 (stereo not drawn) | 0.3 µM
20 | CCOC(=O)c1c(N)sc(C(O)(C(F)(F)F)C(F)(F)F)c1-c1ccc(Cl)cc1 | 9.37 µM (inactive)
21 | Cn1ncc2c(O/N=C(\N)c3ccc(C(C)(C)C)cc3)ncnc21 | 4.27 µM
22 | COc1ccc(C(C(=O)NC2CCCCC2)N(C(=O)CCl)c2cccc(Cl)c2)cc1 (stereo not drawn) | 9.57 µM (inactive)
23 | Cc1nn(-c2ccc(C(F)(F)F)cn2)c(C)c1Oc1ccccc1O | 5.94 µM (inactive)
24 | CC(C)C[C@H](NC(=O)c1nc[nH]c1C(=O)NCC(=O)OC(C)(C)C)C(=O)OCc1ccccc1 | > 10 µM (inactive)
25 | C=CCn1c(COc2ccccc2)nnc1SC(C)C(=O)N/N=C/c1cc(Cl)ccc1O (stereo not drawn) | 9.66 µM (inactive)

Row | Compound | IC50
26 | CCOC(=O)C1=C(c2ccc(OC)cc2)C(=O)c2ccccc2C1=O | 8.81 µM (inactive)
27 | O=C1CC(c2ccco2)CC(O)=C1C=Nc1ccccc1-c1ccccc1 (stereo not drawn) | 2.84 µM (inactive)
28 | CC(C)Oc1ccc(CNC(=O)CC(c2ccccc2)c2cc(Cl)ccc2O)cc1 (stereo not drawn) | 9.59 µM (inactive)
29 | O=[N+]([O-])c1ccc(-c2nc(C(Cl)Cl)c3ccccc3n2)cc1 | 0.19 µM
30 | O=C(Nc1ccc(F)cc1)Nc1ccc(N2CCCC2)c(S(=O)(=O)Nc2ccccc2Cl)c1 | 8.31 µM (inactive)
31 | C=C(C=O)CC1CC(O)[C@]2(C)OC3CC4OC5C[C@]6(C)O[C@]7(C)CCC8OC9C[C@]%10(C)OC%11C(C)=CC(=O)OC%11CC%10OC9C[C@@H](C)C8OC7CC6O[C@]5(C)CC5OC5C4OC3CC2O1 (stereo partly drawn) | 0.82 µM
32 | O=c1c(Cl)c(Cl)cnn1-c1ccccc1 | 9.45 µM (inactive)
33 | CCCCCCCCCCCCCCCC[n+]1cccc(C(=O)N(CC)CC)c1 | 5.06 µM (inactive)
34 | Cc1nc2c(=O)n(C)c(=O)n(C)c2nc1Cl | 3.79 µM (inactive)
35 | CCc1ccc2[nH]c(=O)c(C(c3nnnn3Cc3ccco3)N3CCC(C)CC3)cc2c1 (stereo not drawn) | 4.96 µM
36 | COc1oc(-c2ccc(Cl)cc2)nc1C(F)(F)F | 1.29 µM
37 | CN(C)c1ccc(C(CNS(=O)(=O)c2ccc(F)c(F)c2)c2c[nH]c3ccccc23)cc1 (stereo not drawn) | 6.39 µM (inactive)
38 | CCSc1nc(-c2ccccc2)nc(C(Cl)Cl)n1 | 6.32 µM (inactive)
39 | CCSc1nc2ccccc2n1C(=O)/C=C/c1ccc(OC)c(OC)c1 | 4.97 µM
40 | COc1ccc(-c2nn(-c3ccccc3)cc2/C=N/NC(=O)c2ccc(Br)o2)cc1 | 9.29 µM (inactive)
41 | CCCC(=O)NC(NC(=S)Nc1ccc(N=Nc2ccccc2)cc1)C(Cl)(Cl)Cl (stereo not drawn) | 7.31 µM
42 | O=C(O)c1cccc(COc2ccc(CO)cc2Cl)c1 | < 0.16 µM
43 | CCN1/C(=C/C(C)=C/c2sc3ccccc3[n+]2CC)Sc2ccccc21 | < 0.16 µM
44 | NS(=O)(=O)c1ccc(N/N=C2/CCCCC2C2CCCCC2)c([N+](=O)[O-])c1 (stereo not drawn) | 5.37 µM (inactive)
45 | C/C(=N\N=C1\NC(=O)C(CC(=O)Nc2ccc(C)c(Cl)c2)S1)C(C)(C)C (stereo not drawn) | 9.43 µM (inactive)
46 | N=c1n(CC(=O)c2ccc([N+](=O)[O-])cc2)c2ccccc2n1Cc1ccc(Cl)cc1 | > 10 µM (inactive)
47 | COc1ccc(N=CC2=C(O)c3ccccc3C2=O)c(OC)c1 | 6.53 µM (inactive)
48 | CCN1/C(=C/c2ccc3cc(C)ccc3[n+]2C)Sc2ccc3sccc3c21 | 5.29 µM (inactive)
49 | CC(C)c1ccccc1NC(=O)Cn1c(/C=C/c2ccccc2)nc2ccccc21 | 5.88 µM (inactive)
50 | O=C(Nc1nccs1)c1cc2c(s1)CCCCC2 | > 10 µM (inactive)

Row | Compound | IC50
51 | CC1(c2ccccc2)CC(C)(C)N2C(=O)/C(=C3\SC(=S)NC3=O)c3cccc1c32 (stereo not drawn) | 6.98 µM (inactive)
52 | CC(=O)/C=C/n1c(=S)oc2ccccc21 | 4.65 µM
53 | FC(F)(F)c1cccc(NC(=S)N2CCN(c3cccc(C(F)(F)F)c3)CC2)c1 | 9.67 µM (inactive)
54 | CCOC(=O)CN1C(c2ccc(O)cc2)Nc2ccc(Br)cc2C1c1ccccc1 (stereo not drawn) | 9.53 µM (inactive)
55 | CCc1ccc2c(c1)C(c1ccc([N+](=O)[O-])cc1)=NNC(c1ccc(C)cc1)=N2 | > 10 µM (inactive)
56 | O=S(=O)(NC1CC1)c1ccc(S(=O)(=O)N2CCCC3(CCCCC3)C2)cc1 | 6.79 µM (inactive)
57 | CC(C)(C)c1ccc(O)c(N=Cc2cc(Br)ccc2O)c1 | 9.15 µM (inactive)
58 | O=S1(=O)C=C(Sc2nc3cc(Cl)ccc3o2)c2ccccc21 | 2.91 µM
59 | CCCCC(CC)C(=O)Oc1ccc(O)c(C(C)(C)C)c1 (stereo not drawn) | 2.37 µM (inactive)
60 | N#C/C(=C\c1ccc([N+](=O)[O-])o1)c1nc2ccccc2[nH]1 | 2.74 µM
61 | Cc1cc2c3c(c1)C(C)(c1ccccc1)CC(C)(C)N3C(=O)C21C(C#N)=C(N)OC2=C1C(=O)CC(C)(C)C2 (stereo not drawn) | > 10 µM (inactive)
62 | Cc1ccc(NC2=C/C(=N\S(=O)(=O)c3cccs3)c3ccccc3C2=O)c(C)c1 | 4.52 µM
63 | COc1ccc(N2C(=O)CC(Sc3nnnn3-c3ccc(F)cc3)C2=O)cc1 (stereo not drawn) | 0.24 µM
64 | COc1cccc(-n2nnnc2S(C)(=O)=O)c1 | 5.51 µM (inactive)
65 | O=C(/C=C\c1cn(-c2ccccc2)nc1-c1ccccc1)Nc1nccs1 | 6.03 µM (inactive)
66 | FC(F)(F)c1cccc(NC(=S)NC(c2ccccc2)c2ccccc2)c1 | 9.54 µM (inactive)
67 | CCOc1cc(NC(=S)NCC(C)C)c(OCC)cc1NC(=O)c1cccs1 | > 10 µM (inactive)
68 | CCOc1cccc(CNc2ccc(O)cc2)c1OCc1ccc(Cl)cc1Cl | 4.58 µM
69 | CC(C)c1ccc(O)c(NC(=S)NC(=O)CCc2ccccc2)c1 | 2.97 µM (inactive)
70 | CC(C)=NOc1cc(NC(=O)CCl)cc([N+](=O)[O-])c1 | 9.61 µM (inactive)
71 | C/C=C/Cn1c(SCCCc2ccccc2)nc2c1c(=O)[nH]c(=O)n2C | > 10 µM (inactive)
72 | CC1=C/C(=N\OS(=O)(=O)c2ccccc2)C(C)=CC1=O | 0.9 µM
73 | Nc1c(C(=O)Nc2ccc(S(=O)(=O)N3CCCC3)cc2)sc2nc3ccc(OC(F)(F)F)cc3cc12 | 6.79 µM (inactive)
74 | COc1ccc2c(C)nc(Nc3nc(C)c(C)c(=O)[nH]3)nc2c1 | 9.72 µM (inactive)
75 | CCCCCCN1C=CC(=C2C(=O)c3ccccc3C2=O)C=C1 | 6.36 µM (inactive)

Row | Compound | IC50
76 | CCOC(=O)c1c(C)[nH]c2c1-c1ccccc1C(=O)C2=O | 2.38 µM
77 | CCC1(c2ccc(F)cc2)NC(=O)N(CC(=O)Nc2ccc(-c3nc4ccc(C)cc4s3)cc2)C1=O (stereo not drawn) | 1.54 µM
78 | O=C1C(=C2SCCCS2)CC/C1=C\c1ccc(F)cc1 | 4.38 µM (inactive)
79 | CNc1nc(Sc2cccc(C(F)(F)F)c2)cc(C(F)(F)F)n1 | > 10 µM (inactive)
80 | Nc1c(S(=O)(=O)c2cccc(Cl)c2)c2nc3ccccc3nc2n1/N=C/c1ccc(O)c(O)c1 | 4.97 µM (inactive)
81 | Fc1ccc(-c2nn(-c3ccccc3)cc2CNCc2ccccc2)cc1 | 9.62 µM (inactive)
82 | O=C(Nc1ccc(Oc2ccccc2)cc1)C1CCN(c2c3c(nc4ncnn24)CCC3)CC1 | > 10 µM (inactive)
83 | COc1cc(/C=C/C(=O)OC2CC3CCC2(C)C3(C)C)ccc1O (stereo not drawn) | 9.52 µM (inactive)
84 | Cc1cc(C2=NNC(=NC3CC3)SC2)c(C)n1-c1ccccc1 | < 0.16 µM (inactive)
85 | O=C(Nc1cccc(Cl)c1Cl)c1cc(S(=O)(=O)NCCc2ccccc2)ccc1F | 9.57 µM (inactive)
86 | CCOc1cc(NC(=O)CCl)c(OCC)cc1NC(=O)CCl | > 10 µM (inactive)
87 | O=S(=O)(Nc1cccc2c1CCCC2)c1cccc(C(F)(F)F)c1 | 9.51 µM (inactive)
88 | C=C1C(=O)O[C@@H]2C[C@@H](C)[C@@H]3C=CC(=O)[C@@]3(C)[C@@H](O)[C@H]12 | 2.61 µM
89 | O=C(Nc1ccccc1NC(=O)NC1CCCCC1)NC1CCCCC1 | 8.46 µM (inactive)
90 | CC1CCc2c(sc3ncn(CC(=O)N=Nc4c(O)[nH]c5ccccc45)c(=O)c23)C1 (stereo not drawn) | 7.42 µM (inactive)
91 | CC1=NN(c2nc(-c3ccc(C)cc3)cs2)C(=O)C1N=Nc1ccccc1O (stereo not drawn) | 6.66 µM (inactive)
92 | O=C(OCn1ncc(Cl)c(Cl)c1=O)c1cccc(C(F)(F)F)c1 | 4.44 µM
93 | CCCCc1ccc(Nc2nc(CCC)cc(=O)[nH]2)cc1 | 1.97 µM (inactive)
94 | CCCCn1c(NS(=O)(=O)c2ccccc2)c(S(=O)(=O)c2ccc(C)cc2)c2nc3ccccc3nc21 | 9.67 µM (inactive)
95 | CC(C)(C)c1cc(CN2CCCC(O)C2)c(O)c(C(C)(C)C)c1 (stereo not drawn) | 5.02 µM
96 | O=C(C1=C(c2ccccc2)C(=O)c2ccccc2C1=O)c1ccccc1 | 4.73 µM
97 | CCOc1cc(S(=O)(=O)Nc2ccc(CC)cc2)ccc1Cl | 4.48 µM (inactive)
98 | Clc1nssc1=Nc1ccc(Br)cc1 | 6.25 µM (inactive)
